Experimental data from patent publication US20260085315A1, “POLYNUCLEOTIDE COMPOSITIONS AND METHODS FOR TREATMENT OF CANCER” (APTAH BIO, INC., priority 2023, published 2026).
Entries after “also recorded” stand apart in the source; their conditions may differ. d = 2'-deoxy (DNA); m = 2'-O-methyl

Columns and labels:
[1] = system: Human Glioblastoma Cancer (U-87MG) xenograft; assay: Human glioblastoma xenograft tumor growth; type: in vivo, athymic nude mice; conditions: for tumor reduction in relation to the negative control: APT20TTMG 20 mg/kg i.v. q3d, TMZ 5 mg/kg p.o. daily
Description: Subcutaneous inoculation of the tumorigenic Human Glioblastoma Cancer Cell line (U-87MG) results in the formation of solid tumor in athymic nude mice. Under pathogen free conditions, the tumor retains its own characteristics and grows using the growth factors supplied by the host animal. The ability of administered ASMO1 to inhibit the growth of tumor can be a valuable tool to evaluate its efficacy as an anti-tumor agent. Measurement of tumor size at defined intervals of time generates data that can be used to calculate various end point parameters derived from tumor and understand the potency of the test compounds.
Human glioblastoma cancer cells (U-87MG) were cultured and expanded in EMEM (Eagle's Minimum Essential Medium) supplemented with 10% Fetal Bovine Serum (FBS) at 37° C. and 5% CO2. The cells growing at log phase were harvested by trypsinization and centrifuged for 3 minutes at 800 rpm to form a pellet. The pellet was further washed with PBS. Cell suspension stock was prepared to obtain the required cell count. Before cell inoculation, cell viability was determined using trypan blue. 25 μL of cell suspension was stained with 25 μL of trypan blue and viable cells were counted using Neubauer's chamber. Cell number was adjusted by adding serum free media to achieve desired concentration, i.e., 10×10^7/mL.
Cells were diluted such that the concentration of the cells was 10 million cells/100 μL of serum free medium. Overnight thawed Matrigel and cells with medium were mixed 1:1 and a total volume of 200 μL was injected subcutaneously to the donor animals (n=5) at flank region.
Donor animals were monitored for solid tumor growth for at least 3-4 weeks. Tumor size was measured using digital caliper (MITUTOYO, Japan, CP-15Mx) and volume was calculated by using the formula: (L*W2)/2. Once the tumor reached required size ˜500 mm^3, the donor animals were humanely sacrificed, the tumor was harvested and fragmented into ˜30 mg size and implanted subcutaneously to experimental animals (n=50) using the device. All the animals was monitored alternate day for tumor growth/size.
Once the tumor size reached ˜100 mm^3, animals were selected and randomized by stratification method using tumor size into three groups (G1-G3). Treatment for G1-G3 was initiated at this stage. Each group was comprised of 8 animals.
• G1 was served as vehicle control group and treated with normal saline at the dose of 5 mL/kg, daily, intravenously for 3 weeks. • G2 was served as Reference Item treated group and treated with TMZ at the dose of 5 mg/kg, p.o., daily for 3 weeks. • G3 was treated with APT20TTMG at the dose of 20 mg/kg, intravenously, every third day (q3d) for 3 weeks.
Body weight and tumor size were measured weekly twice using digital caliper. At termination, blood was collected through retro-orbital route. Serum/plasma was separated and stored at deep freezer (−20° C.). Post blood collection, animals were humanely sacrificed by CO2 asphyxiation as per latest guidelines issued by CPCSEA. All the vital organ (brain, kidney, liver, lungs, heart) and tumor were dissected out. Vital organs were fixed in 10% NBF and stored. Tumor tissue was dissected out, weighed and portion of tumor tissue was fixed in 10% NBF and another portion is snap frozen and stored at deep freezer (−80° C.).
As shown in FIG. 34A-C, tumor fragments from the U-87MG cell line were implanted in the animals and once the tumor size reached ˜100 mm^3 animals were randomized into 3 experimental groups (G1, G2, and G3). G1: Vehicle, (G2) Reference Item Temozolomide, and (G3) APT20TTMG for a total of 22 days. (A) The tumor volume of the animals was measured twice/a week. (B) Animals were weighed throughout the experiment and the change in weight gain compared to pre-treatment weight was plotted. (C) After the euthanasia of the animals, the tumors were removed and weighed.

TAU protein = assay: Tau quantification by Western blot in SK-N-SH; type: cell-based; conditions: 0.5 μM
Description: FIG. 27A-27B illustrates MAPT expression and tau quantification obtained after 24, 48, 96 and 144 hours of incubation with ASMO1 (0.5 μM) in neuroblastoma cell line.
Cells were rinsed once with ice-cold PBS, collected, and pelleted by centrifugation at 2500 g for 5 minutes at 4° C. Each sample was re-suspended and lysed in 50 μl ice-cold radioimmunoprecipitation assay (RIPA) buffer (Thermo Fisher Scientific, USA) containing EDTA-free Halt protease and phosphatase inhibitor cocktail mixture (Thermo Fisher Scientific, USA) for 20 min at 4° C. To increase protein yields, each sample was homogenized using a 29 G×13 mm needle and syringe. Cell lysates were clarified by centrifugation at 17,000 g for 15 minutes at 4° C. Supernatants were collected and total protein concentration was determined using the BCA protein assay kit (Thermo Fisher Scientific, USA) according to the manufacturer's instructions. 15 μg of total protein in cell lysates were denatured in NuPAGE LDS sample buffer (Thermo Fisher Scientific, USA) with NuPAGE sample reducing agent (DTT; Thermo Fisher Scientific, USA) and boiled at 90° C. for 5 minutes. […] Densitometry using Image J (v1.48k; NIH) was performed and all quantification was standardized against vinculin levels.

Substance: APT20TTMG: engineered polynucleotide ASMO1, 24 nt, SEQ ID NO: 3 gtccactaacctttcaggccagcg; targeting moieties 5′-GTCCA-3′ and 5′-CG-3′, U1 snRNP recruiting moiety (GTCCACTAACCTTTCAGGCCAGCG; sugars from the 5' end m5 d14 m5, all phosphorothioate, methylation of C and T or U not given here)
- tumor growth (tumor volume) vs vehicle group ([1]; APT20TTMG 20 mg/kg i.v. every third day 3 weeks, TMZ 5 mg/kg p.o. daily 3 weeks): inhibit tumor growth from day 16
- final tumor weight ([1]; between APT20TTMG, TMZ and vehicle groups, after euthanasia): no statistical difference
- tumor reduction in relation to the negative control ([1]; day 20): 46.7±10.7%
- tumor reduction in relation to the negative control ([1]; day 22): 42±13.2%
- Volume (tumor) ([1]; individual animals, G3 APT20TTMG, G2 TMZ): Volume 321.5; also recorded: Volume 768.1; also recorded: Volume 796.8; also recorded: Volume 62.3; also recorded: Volume 1441.5; also recorded: Volume 953.5
- reduction of tau protein quantification (TAU protein; first of 'the two highest concentrations' as printed (parallel to 96 h)): 40±13.3%
- reduction of tau protein quantification (TAU protein; second of 'the two highest concentrations' as printed (parallel to 144 h)): 46±14.3%
